The text below walks through data of patent publication US9168212B2, “Composition for eyelash growth” (SK CHEMICALS CO., LTD., priority 2011, dated 2015).

Assay [1] concerns eyelashes. Description: In vivo evaluation related to eyelash growth (two weeks local administration). Also on record: species or system mouse. As to the method: (§1) Analysis was conducted immediately after the eyelashes were collected. Using a high-performance microscope with computer-assisted eyelid thickness focus fixation and an image analysis software capable of measuring the number, thickness and length of eyelashes, the eyelashes were measured for the exact number, thickness and length thereof. Numeric data obtained by this method was averaged, and comparative analysis was conducted using prism statistical software.

The test system of assay [2] is eyelashes. Description: Short-term in vivo evaluation related to eyelash growth (one week administration). Details: species or system mouse. As to the method: as §1
The mark [3] stands for this setting: female mouse, 2 μl applied to the eyelashes once a day for two weeks, n is 8 for each group.
[4] abbreviates: female mouse, 2 μl applied to the eyelashes once a day for one week, n is 6 for each group.

As for `CCNC(=O)CCC/C=C\C[C@@H]1[C@@H](/C=C/[C@@H](O)CCc2ccccc2)[C@H](O)C[C@@H]1O` [bimatoprost], the “statistical significance of increase in number, thickness and length of eyelashes compared to the control group” value in assay [1] (administered for two weeks, t-test) was “statistically significant increase in only two items of number and thickness of eyelashes”. Moreover, in assay [1] (setting [3]), the number of eyelashes is on record as 39.0 eyelashes, the “number of eyelashes having a length of 1000 μm or more” value stood at 9.5 eyelashes and the “number of eyelashes having a thickness of 15 μm or more” value was 9.5 eyelashes. For the same molecule, in assay [2] (setting [4]), the number of eyelashes came to 37.8 eyelashes, the “number of eyelashes having a length of 1000 μm or more” value came to 12.3 eyelashes and the “number of eyelashes having a thickness of 15 μm or more” value came to 8.7 eyelashes. Further, the “statistical significance of increase in number, thickness and length of eyelashes compared to the control group” value in assay [2] (one week administration, t-test) is listed as “statistically significant increase in only one item of eyelash thickness”.
